Test system: AP4B1-KO SH-SY5Y cells
Assay: Testing of compounds for AP-4 deficiency: ATG9A translocation in AP4B1-KO SH-SY5Y cells
Conditions: 24 h, std error in own column
Protocol: SH-SY5Y cell culture. […] Media changes were done every 2-3 days and drugs were administered 24 h before fixation.
Immunocytochemistry. […] SH-SY5Y cells were fixed using 4% PFA, permeabilized with 0.1% saponin in PBS and blocked in 1% BSA/0.01% saponin (blocking solution) in PBS. Primary antibody (diluted in blocking solution) was added for 1 h at room temperature. […] Plates were then gently washed three times with PBS and protected from light.
High-content imaging and automated image analysis. […] Up to 36 fields were acquired in a 6×6 format (96-well plate) using a 40×S Plan Fluor objective (NA 0.60 m, WB 3.6-2.8 mm). Image analysis was performed using a customized image analysis pipeline in MetaXpress (Molecular Devices): Briefly, cells were identified based on the presence of DAPI signal inside a TUBB3-positive cell body. […] ATG9A fluorescence intensity (F.U.) was measured in both compartments in each cell, and the ATG9A ratio was calculated by dividing the ATG9A fluorescence intensity inside the TGN by the ATG9A fluorescence intensity in the remaining cell body:
Z′-factor robust values and strictly standardized median difference (SSMD) were calculated for each plate and only plates that met the predefined quality metrics of a Z′-factor robust 0.3 and SSMD 3 were included in analyses.

EC50 (z atg9a ratio)	SMILES
4.418	Oc1cccc2sc(N3CCc4[nH]cnc4C3)nc12 [Compound 10]
1.185	Cc1cccc2sc(N3CCc4[nH]cnc4C3)nc12 [Compound 17]
